ChEMBL document CHEMBL1770093, “Potent antiprotozoal activity of a novel semi-synthetic berberine derivative” (Bioorg Med Chem Lett, 2011)
pIC50: −log10 of the molar value. Structures can show the parent of a compound that is named as a salt.

What was measured:
[1] = tested on: Leishmania amazonensis; test: Antileishmanial activity against intracellular Leishmania amazonensis infected in mouse peritoneal macrophages; format: functional, organism-based
[2] = tested on: Trypanosoma brucei brucei; test: Antitrypanosomal activity against bloodstream form of Trypanosoma brucei brucei; format: functional, organism-based
[3] = tested on: Plasmodium falciparum; test: Antimalarial activity against Plasmodium falciparum by flow cytometry; format: functional, organism-based
[4] = tested on: Vero; test: Cytotoxicity against african green monkey Vero cells; format: cell-based; settings: Chlorocebus sabaeus
[5] = tested on: Leishmania amazonensis; test: Antileishmanial activity against Leishmania amazonensis infected in mouse visceral leishmaniasis model assessed as decrease in parasitemia level in liver at 1 mg/kg/day, ip administered 5 times; format: functional; set-up: scale not given: the % may be the effect or the level left; settings: route intraperitoneal
[6] = Selectivity index, ratio of IC50 for african green monkey Vero cells to IC50 for bloodstream form of Trypanosoma brucei brucei; format: toxicity, cell-based; settings: read-out: Ratio IC50
[7] = tested on: Mus musculus; test: Toxicity in Leishmania amazonensis infected mouse visceral leishmaniasis model at > 1 mg/kg/day, ip; format: organism-based; set-up: route intraperitoneal; settings: in vivo
[8] = tested on: Leishmania amazonensis; test: Antileishmanial activity against Leishmania amazonensis infected in mouse visceral leishmaniasis model assessed as decrease in parasitemia level in liver at 10 mg/kg/day, ip administered 5 times; format: functional; set-up: scale not given: the % may be the effect or the level left; settings: route intraperitoneal

Row | pIC50 [1] | pIC50 [2] | pIC50 [3] | SMILES | other results
1 | 6.74 | 8.04 | 7.44 | CCC1(CC)c2c(ccc(OC)c2OC)C(=O)c2c3cc4c(cc3cc[n+]21)OCO4.[Cl-] | pIC50 [4]: 4.04; Activity [5]: 47%; selectivity ratio [6]: 10000; Activity [7]: Toxic
2 | – | – | – | CCCCCCCCCCCCCCCCOP(=O)([O-])OCC[N+](C)(C)C [MILTEFOSINE] | Activity [8]: 98%
3 | 6.92 | – | – | C[C@@H]1[C@H](O)[C@@H](C)/C=C/C=C/C=C/C=C/C=C/C=C/C=C/[C@H](O[C@@H]2O[C@H](C)[C@@H](O)[C@H](N)[C@@H]2O)C[C@@H]2O[C@](O)(C[C@@H](O)C[C@@H](O)[C@H](O)CC[C@@H](O)C[C@@H](O)CC(=O)O[C@H]1C)C[C@H](O)[C@H]2C(=O)O [AMPHOTERICIN B] | –
4 | 4.77 | 5.96 | 6.10 | COc1ccc2cc3[n+](cc2c1OC)CCc1cc2c(cc1-3)OCO2 [BERBERINE SULFATE] | –
5 | – | 6.60 | – | Cc1ccc(C(=O)Nc2ccc(S(=O)(=O)O)c3cc(S(=O)(=O)O)cc(S(=O)(=O)O)c23)cc1NC(=O)c1cccc(NC(=O)Nc2cccc(C(=O)Nc3cc(C(=O)Nc4ccc(S(=O)(=O)O)c5cc(S(=O)(=O)O)cc(S(=O)(=O)O)c45)ccc3C)c2)c1 [SURAMIN] | –
